What was measured:
DNA = assay: Reaction of E2-3,4-Q or enzymatically-activated 4-OHE2 with DNA in vitro; type: biochemical; settings: enzymatically activated (peroxidases, tyrosinase, microsomes), all cases
Method: To determine whether DNA adducts are formed in biological systems, E2-3,4-Q or enzymatically-activated 4-hydroxyestradiol (4-OHE2) was reacted with DNA for 2 h at 37° C. The stable adducts were quantified by the ^32P-postlabeling method, and the depurinating adducts were analyzed by high pressure liquid chromatography (HPLC) interfaced with an electrochemical detector. When E2-3,4-Q reacted with DNA, almost the same amount of the depurinating adducts 4-OHE2-1-N3Ade and 4-OHE2-1-N7Gua were obtained, and the amount of stable adducts was 0.02% of the depurinating ones. Activation of 4-OHE2 by horseradish peroxidase gave similar results, whereas the mammalian lactoperoxidase produced a similar amount of N3Ade adduct, but about 50% more N7Gua adduct. The same two depurinating adducts were obtained in equal but smaller amounts when 4-OHE2 was activated with tyrosinase or phenobarbital-induced rat liver microsomes. In all cases, the level of stable adducts was 0.02% or less compared to the depurinating adducts (Li K. M., et al., Proc. Am. Assoc. Cancer Res., 39, 636 (1998); Cavalieri, et al., unpublished results).

mouse skin DNA = assay: DNA adducts formed in mouse skin by PAH; type: in vivo
[1] = test system: H-ras gene codon 61 (CAA to CTA); assay: PCR-RFLP detection of H-ras codon 61 mutations in treated mouse skin; type: in vivo
Excerpt: In this technique, a segment of the H-ras gene is PCR-amplified and the product is restricted with XbaI to examine the induction of a RFLP from the codon 61 mutation. It was observed that at one day, 0.1% of the H-ras genes in the treated area of skin contained the codon 61 mutation, and then the population of these mutations increased to a maximum of 5% between 3 and 4 days after DB[a,l]P treatment. Subsequently, the level of mutations was reduced to background levels (0.0001%). The early time of induction of the codon 61 mutations (one day after DB[a,l]P treatment) coincides with suppression of DNA synthesis and induction of excision repair. Therefore, perhaps DB[a,l]P-induced DNA damage is converted into mutations by error-prone excision repair in pre-S-phase cells. (Chakravarti D., et al., Oncogene, 16, 3203-3210 (1998); Slaga T. J., et al., Cancer Res., 34a, 771-777 (1974); Sawyer T. W., et al., Carcinogenesis, 9, 1197-1202 (1988); Gill R. D., et al., Environ. Mol. Mutagen., 18, 200-206 (1991).)

H-ras gene = assay: H-ras mutation spectra in treated mouse skin (PCR, cloning, sequencing, with or without TDG treatment); type: in vivo; settings: for A/T to G/C mutations, percent of total mutations / A/T to G/C mutations/total mutations: skin DNA
Method: Evidence in support of this was obtained from a comparative study of mutations in the mouse skin H-ras gene induced by 200 nmol of DB[a,l]P or 200 nmol of anti-DB[a,l]P-11,12-dihydrodiol-13,14-epoxide (anti-DB[a,l]PDE). Unlike DB[a,l]P, anti-DB[a,l]PDE forms 97% stable adducts and 3% depurinating adducts in DNA. In these experiments, the types of mutations that are induced in the early preneoplastic times was identified (12 h to 9 days after treatment) and then analyzed whether these mutations were induced as a result of error-prone repair (FIG. 4). The mutations were identified by PCR amplifying a segment of the H-ras gene from DNA extracted from mouse skin treated with one of the carcinogens, cloning the PCR products in a plasmid, isolating individual subclones and sequencing the H-ras inserts to identify mutations. (Chakravarti D., et al., Mutation Res., 456, 17-32 (2000); Cavalieri E. L. and Rogan E. G., Mechanisms of tumor initiation by polycyclic aromatic hydrocarbons in mammals. In: The Handbook of Environmental Chemistry: PAHs and Related Compounds, 3J, 81-117, Neilson A. H. (ed.), Springer, Heidelberg, Germany (1998).)
In this technique, G.T heteroduplexes in skin DNA are converted to G.apyrimidinic sites by treatment with T.G-DNA glycosylase (TDG) (FIG. 5). (Chakravarti D., et al., Mutation Res., 456, 17-32 (2000).)
Since abasic site-containing DNA molecules are refractory to PCR amplification, the conversion of G.T heteroduplexes into G. apyrimidinic sites makes H-ras molecules containing these heteroduplexes unamplifiable. […] As a result, PCR amplification of the H-ras gene from TDG-treated skin DNA, followed by cloning the PCR product and isolating and determining the sequence of individual subclones, causes a specific, drastic reduction of A to G mutations in the mutation spectra. In addition, the preferential PCR amplification artificially enriches low-abundance mutations that are observed only in TDG-treated spectra.
Following the entry of skin cells into S-phase, however, the G.T heteroduplexes are converted into G.C and A.T base pairs by one round of replication. […] Thus, the specific reduction of A to G mutations in the mutation spectra by the TDG-PCR procedure characterizes these mutations as G.T heteroduplexes. […] Therefore, A to G mutations remained as G.T heteroduplexes until one day after DB[a,l]P treatment of the skin; beyond which they were present as G.C and A.T mutations, presumably by replication. Flow cytometric analysis of epidermal keratinocytes isolated from DB[a,l]P-treated mouse skin confirms that cells begin to enter the S-phase one day after the treatment. (Chakravarti D., et al., Mutation Res., 456, 17-32 (2000); Chakravarti et al., unpublished results).
Treatment of mouse skin with 200 nmol of E2-3,4-Q induced primarily A/T to G/C mutations in the H-ras gene (FIG. 7). For example, 6 h after E2-3,4-Q treatment, 7 mutations were identified among 29 H-ras inserts. Five of the seven were A/T to G/C mutations. At 12 h, four out of the six mutations found in 30 H-ras inserts were A/T to G/C mutations. […] The observation that E2-3,4-Q induces mutations at 6 h is, therefore, a basis to propose that these mutations are induced by error-prone repair. To confirm this, TDG-PCR analysis of these mutations was conducted (FIG. 7). […] At 12 h, the change was from 4 in 30 H-ras inserts to 0 in 41 plasmids. […] The TDG-treated 1 day spectrum was dominated by two clonal mutations of equal frequency (codon 16 AAG to AGG and intronic C to T mutations). Because it is unlikely that the intronic mutation would affect Ras activity and the two clonal mutations were found in the same frequency, these mutations may be allelic, belonging to a clonally proliferating population. […] (Chakravarti D., et al., Oncogene, 20, 7945-7953 (2001).)

Harvey (H)-ras oncogene = assay: H-ras mutations in mouse skin papillomas initiated by PAH; type: in vivo; settings: codon 61, skin papillomas
cloned H-ras gene (pWT) = assay: Mutations after PCR of pWT plasmid treated in vitro, with or without TDG; settings: pWT DNA
Excerpt: FIGS. 4A-D depict H-ras mutations induced by DB[a,l]P or its metabolite, anti-DB[a/l]PDE. Wild type sequences and nucleotide numbers (GenBank accession No. U89950) are indicated below and mutations are indicated above the line. (A) PCR artifact mutations induced in untreated skin DNA and in a cloned H-ras gene (pWT) treated with anti-DB[a,l]PDE or with acid. Under the treatment conditions, anti-DB[a,l]PDE induces 1 adduct per 1000 bases and acid induces 1 depurination per 170 bases (Chakravarti, D. Et al., Mutat. Res., 456, 17-32 (2000)). (B) H-ras mutations in mouse skin DNA after treatment with 200 nmol DB[a,l]P in 100 μL acetone. At 12 h-1 d, the spectra contained mostly A/T to G/C mutations. At days 2 and 3, multiple codon 61 mutations were observed. At 4 d, no clear pattern of mutations could be determined. At days 5 and 6, multiple codon 52 (CTA to CCA) mutations were observed. […] (C) H-ras mutations in mouse skin DNA after treatment with 200 nmol of anti-DB[a,l]PDE in 100 μL acetone. Fifty to sixty percent of mutations between days 1 to 4 were A/T to G/C mutations. (D) H-ras mutations after TDG treatment of DNA from anti-DB[a,l]PDE-treated pWT and from DB[a,l]P- or anti-DB[a,l]PDE-treated mouse skin. […] These mutations were also observed at days 2 and 3. In addition, at days 2 and 3, multiple codon 13 (GGC to GTC) mutations were observed.
On the other hand, anti-DB[a,l]PDE formed approximately 50% A/T to G/C mutations, which correlated with 48.5% formation of anti-DB[a,l]PDE-Ade stable adducts in mouse skin DNA (Table 2). […] Studies conducted in other laboratories also indicate that nucleotide excision repair of bulky stable adducts is error-free. When the pWT plasmid was treated with anti-DB[a,l]PDE in vitro (97% bulky stable adducts) and subjected to PCR amplification, A/T to G/C mutations was also found to constitute 50% of all mutations (5 out of 10) (FIG. 4A). These mutations are induced by translesional synthesis over bulky stable adducts by the PCR polymerases. If, as has been proposed by others, only a small population of PAH-induced bulky stable adducts is removed by pre-replication repair, a large fraction of anti-DB[a,l]PDE-induced adducts would persist in the mouse skin DNA. It is, therefore, possible that the mutations found in anti-DB[a,l]PDE-treated mouse skin DNA are adduct-induced PCR artifacts. The similarity of the frequencies of A/T to G/C mutations in vitro and in skin is consistent with this idea.

C[C@]12CC[C@@H]3c4ccc(O)c(O)c4CC[C@H]3[C@@H]1CC[C@@H]2O [4-OHE2, 4-hydroxyestradiol]
level of stable adducts compared to the depurinating adducts (DNA): ≤ 0.02%

c1ccc2c(c1)cc1ccc3cccc4c5ccccc5c2c1c34 [DB[a,l]P, dibenzo[a,l]pyrene]
depurinations through depurinating adducts versus spontaneous base loss (mouse skin DNA; spontaneous: 10,000-20,000 depurinations/cell/day): approximately 120 fold
H-ras genes in treated skin containing the codon 61 mutation ([1]; 200 nmol, at one day): 0.1%
H-ras genes containing the codon 61 mutation, maximum ([1]; 200 nmol, between 3 and 4 days after treatment): 5%
level of codon 61 mutations, subsequently reduced to background levels ([1]; after days 3-4): 0.0001%
A/T to G/C mutations, percent of total mutations (H-ras gene; day 1, +TDG): 20%
A/T to G/C mutations/total mutations (H-ras gene; day 1, +TDG): 2/10
A/T to G/C mutations, percent of total mutations (H-ras gene; day 1, −TDG): 90%
A/T to G/C mutations/total mutations (H-ras gene; day 1, −TDG): 10/11
A/T to G/C mutations, percent of total mutations (H-ras gene; day 2, +TDG): 27%
A/T to G/C mutations/total mutations (H-ras gene; day 2, +TDG): 6/22
A/T to G/C mutations, percent of total mutations (H-ras gene; day 2, −TDG): 31%
A/T to G/C mutations/total mutations (H-ras gene; day 2, −TDG): 11/35
A/T to G/C mutations, percent of total mutations (H-ras gene; day 3, +TDG): 32%
A/T to G/C mutations/total mutations (H-ras gene; day 3, +TDG): 8/25
A/T to G/C mutations, percent of total mutations (H-ras gene; day 3, −TDG): 31%
A/T to G/C mutations/total mutations (H-ras gene; day 3, −TDG): 7/22
H-ras Mutations, No. of mutations/No. of mice, CAA→CTA (Harvey (H)-ras oncogene): 10/12 CAA→CTA

Cc1c2ccccc2c(C)c2c1ccc1ccccc12 [DMBA, 7,12-dimethylbenz[a]anthracene]
H-ras Mutations, No. of mutations/No. of mice, CAA→CTA (Harvey (H)-ras oncogene): 4/4 CAA→CTA

OC1c2cc3ccc4cccc5c6ccccc6c(c2C2OC2C1O)c3c45 (stereo not drawn) [anti-DB[a,l]PDE, anti-dibenzo[a,l]pyrene-11,12-dihydrodiol-13,14-epoxide]
depurinating adducts formed, share of adducts (mouse skin DNA; DNA): 3%
stable adducts formed, share of adducts (mouse skin DNA; DNA): 97%
Ade stable adducts formed (mouse skin DNA; mouse skin DNA): 48.5%
A/T to G/C mutations formed, share of mutations (H-ras gene; mouse skin): approximately 50%
A/T to G/C mutations, percent of total mutations (H-ras gene; day 1, +TDG): 80%
A/T to G/C mutations/total mutations (H-ras gene; day 1, +TDG): 4/5
A/T to G/C mutations, percent of total mutations (H-ras gene; day 1, −TDG): 62.5%
A/T to G/C mutations/total mutations (H-ras gene; day 1, −TDG): 5/8
A/T to G/C mutations, percent of total mutations (cloned H-ras gene (pWT); +TDG): 60%
A/T to G/C mutations/total mutations (cloned H-ras gene (pWT); +TDG): 3/5
A/T to G/C mutations, percent of total mutations (cloned H-ras gene (pWT); −TDG): 50%
A/T to G/C mutations/total mutations (cloned H-ras gene (pWT); −TDG): 5/10

Reference: patent publication US8629174B2, “Unifying mechanism and methods to prevent cancer and neurodegenerative diseases” (Prevention L.L.C., priority 2002, dated 2014)
